Experimental data from ChEMBL document CHEMBL1150588, “New nitrogenous eudesmane-type compounds isolated from the Caribbean sponge Axinyssa ambrosia” (J Nat Prod, 2002).

Tests used:
Madracis mirabilis [1] = assay: Toxicity against Madracis mirabilis polyps assessed as mortality at 7.75 ug/ml after 2 hrs; settings: in vivo
[2] = Toxicity against Madracis mirabilis polyps assessed as mortality after 2 hrs; type: organism-based; settings: in vivo; read-out: LD50
Madracis mirabilis [3] = assay: Toxicity against Madracis mirabilis polyps assessed as mortality at 10 ug/ml after 2 hrs; settings: in vivo
P388 = assay: Cytotoxicity against mouse P388 cells; type: functional, cell-based
HT-29 = assay: Cytotoxicity against human HT-29 cells; type: functional, cell-based
A549 = assay: Cytotoxicity against human A549 cells; type: functional, cell-based
Madracis mirabilis [4] = assay: Toxicity against Madracis mirabilis assessed as retraction recovery at 10 ug/ml after 48 hrs; settings: in vivo
Madracis mirabilis [5] = assay: Toxicity against Madracis mirabilis assessed as retracted polyps at 10 ug/ml after 24 hrs; settings: in vivo

| Compound | Activity (Madracis mirabilis [1]) | LC50 at 2 h [2] [mg/L] | Activity (Madracis mirabilis [3]) | IC50 (P388) [mg/L] | IC50 (HT-29) [mg/L] | IC50 (A549) [mg/L] | Activity (Madracis mirabilis [4]) [%] | Activity (Madracis mirabilis [5]) |
| --- | --- | --- | --- | --- | --- | --- | --- | --- |
| C=C(C)[C@H]1CC[C@@]2(C)CCC[C@@](C)(N)[C@@H]2C1.Cl (relative stereo) | Non-toxic | 9.4 | Toxic | 2 | 2 | 2 |  |  |
| C=C(C)[C@H]1CC[C@@]2(C)CCC[C@@](C)(N)[C@@H]2C1 (relative stereo) |  |  |  |  |  |  | 40 | Active |
